Assay results published in patent US20230203081A1, “LINCOSAMIDE ANTIBIOTICS AND USES THEREOF” (President and Fellows of Harvard College, priority 2020, published 2023).

Experiments:
Format in all cases: cell-based
[1] = tested on: broad panel of different clinical isolates; assay: organism not typed
In short: (§1)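 Inoculum for broth microdilution was 5×10^5 CFU/mL final, prepared from overnight 35° C blood-agar subcultures (separate handling for streptococcal and anaerobic strains); MICs read by CLSI broth microdilution or agar dilution.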

[2] = tested on: S. aureus BAA 977 iErmA; assay: microbe, parasite or virus in culture; details: S. aureus #HAV002, ATCC BAA 977; iErmA, MRSA
In short: as §1

[3] = tested on: E. coli ΔTolC; assay: microbe, parasite or virus in culture; details: E. coli HAV#038; ΔTolC
In short: as §1

[4] = tested on: S. aureus MP-549 msrA; assay: microbe, parasite or virus in culture; details: S. aureus HAV#032, MP-549; MSR(A)
In short: as §1

[5] = tested on: E. coli armA; assay: microbe, parasite or virus in culture; details: E. coli HAV#056; Clinical, armA
In short: as §1

[6] = tested on: S. aureus ATCC 29213; assay: MIC (broth microdilution or agar dilution, CLSI); details: S. aureus HAV#001, ATCC 29213, MP-549
In short: as §1

[7] = tested on: S. pyogenes ATCC 19615; assay: MIC (broth microdilution or agar dilution, CLSI); details: S. pyogenes HAV#004, ATCC 19615
In short: as §1

[8] = tested on: S. aureus ATCC 700699; assay: MIC (broth microdilution or agar dilution, CLSI); details: S. aureus HAV#202, ATCC 700699 (VISA)
In short: as §1

[9] = tested on: S. aureus MMX 3035 cErmA; assay: MIC (broth microdilution or agar dilution, CLSI); details: S. aureus HAV#031, MMX 3035; cErmA
In short: as §1

[10] = tested on: E. coli ATCC 25922; assay: MIC (broth microdilution or agar dilution, CLSI); details: E. coli HAV#006, ATCC 25922
In short: as §1

[11] = tested on: S. pneumoniae MMX 3031 cMefA; assay: MIC (broth microdilution or agar dilution, CLSI); details: S. pneumoniae HAV#034; MMX 3031, cMefA
In short: as §1

[12] = tested on: S. pyogenes MMX 946; cErmB; assay: MIC (broth microdilution or agar dilution, CLSI); details: S. pyogenes HAV#035, MMX 946; cErmB, mac-resistant
In short: as §1

[13] = tested on: E. coli LptD; assay: MIC (broth microdilution or agar dilution, CLSI); details: E. coli HAV#040; LptD
In short: as §1

[14] = tested on: K. pneumoniae ATCC 10031; assay: MIC (broth microdilution or agar dilution, CLSI); details: K. pneumoniae HAV#008, ATCC 10031
In short: as §1

[15] = tested on: S. pneumoniae ATCC 6303; assay: MIC (broth microdilution or agar dilution, CLSI); details: S. pneumoniae HAV#351, ATCC 6303
In short: as §1

[16] = tested on: E. faecalis MMX 847; cErmB; assay: MIC (broth microdilution or agar dilution, CLSI); details: E. faecalis HAV#036, MMX 847; mac-resistant, cErmB
In short: as §1

[17] = tested on: S. pneumoniae ATCC 49619; assay: MIC (broth microdilution or agar dilution, CLSI); details: S. pneumoniae HAV#003, ATCC 49619
In short: as §1

[18] = tested on: S. pneumoniae MMX 3028 cErmB; assay: MIC (broth microdilution or agar dilution, CLSI); details: S. pneumoniae HAV#033; MMX 3028, cErmB
In short: as §1

[19] = tested on: S. aureus ATCC BAA-1707 (MRSA); assay: MIC (broth microdilution or agar dilution, CLSI); details: S. aureus HAV#016, ATCC BAA-1707; MRSA
In short: as §1

Gentamicin
MIC ([1]; A. baumannii HAV#651, Clinical): 2 µg/mL | MIC ([1]; A. baumannii HAV#652 Clinical): 16 µg/mL | MIC ([1]; A. baumannii HAV#653, Clinical): 0.5 µg/mL | MIC ([1]; A. baumannii HAV#654, Clinical): 2 µg/mL | MIC ([1]; A. baumannii HAV#655, Clinical): 2 µg/mL | MIC ([1]; A. baumannii HAV#656, Clinical): 4 µg/mL | MIC ([1]; A. baumannii HAV#657, Clinical): 4 µg/mL | MIC ([1]; A. baumannii HAV#658, Clinical): 1 µg/mL | MIC ([1]; A. baumannii HAV#659, Clinical): 32 µg/mL | MIC ([1]; A. baumannii HAV#660, Clinical): 32 µg/mL | MIC ([1]; A. baumannii HAV#661, Clinical): 1 µg/mL | MIC ([1]; A. baumannii HAV#662, Clinical): 4 µg/mL | MIC ([1]; A. baumannii HAV#663, Clinical): 0.5 µg/mL | MIC ([1]; A. baumannii HAV#664, Carbapenem R): >128 µg/mL | MIC ([1]; E. coli HAV#501, Clinical): 2 µg/mL | MIC ([1]; E. coli HAV#503, Clinical): 4 µg/mL | MIC ([1]; E. coli HAV#511, Clinical): 16 µg/mL | MIC ([1]; E. coli HAV#512, Clinical): 2 µg/mL | MIC ([1]; E. coli HAV#513, Clinical): 2 µg/mL | MIC ([1]; E. coli HAV#514, Clinical): 1 µg/mL | MIC ([1]; E. coli HAV#516, ESBL-producing): 2 µg/mL | MIC ([1]; E. faecalis HAV#251, Clinical VRE): 16 µg/mL | MIC ([1]; E. faecalis HAV#606, Clinical, VRE): >256 µg/mL | MIC ([1]; E. faecalis HAV#607, Clinical): >256 µg/mL | MIC ([1]; E. faecalis HAV#608, Clinical): >256 µg/mL | MIC ([1]; E. faecalis HAV#609, Clinical): >256 µg/mL | MIC ([1]; E. faecalis HAV#610, Clinical): >256 µg/mL | MIC ([1]; E. faecalis HAV#611, Line R & Vanco R): >128 µg/mL | MIC ([1]; E. faecalis HAV#612, Line R): >128 µg/mL | MIC ([1]; E. faecium HAV#317, Clinical): 16 µg/mL | MIC ([1]; E. faecium HAV#318, VanA, VRE): 8 µg/mL | MIC ([1]; E. faecium HAV#324, Clinical): >256 µg/mL | MIC ([1]; E. faecium HAV#327, Clinical): 8 µg/mL | MIC ([1]; E. faecium HAV#328, Clinical): >256 µg/mL | MIC ([1]; E. faecium HAV#329, Clinical): 4 µg/mL | MIC ([1]; H. influenzae HAV#376, ATCC-9007): 4 µg/mL | MIC ([1]; K. pneumoniae HAV#041, Clinical, KPC): 8 µg/mL | MIC ([1]; K. pneumoniae HAV#404, Clinical): 0.5 µg/mL | MIC ([1]; K. pneumoniae HAV#405, Clinical): 0.5 µg/mL | MIC ([1]; K. pneumoniae HAV#406, Clinical): 1 µg/mL | MIC ([1]; K. pneumoniae HAV#407, Clinical): 0.5 µg/mL | MIC ([1]; K. pneumoniae HAV#408, Clinical): 2 µg/mL | MIC ([1]; K. pneumoniae HAV#409, ESBL-producing): 0.5 µg/mL | MIC ([1]; S. aureus HAV#017, MRSA Col(Colindale, England)): 0.5 µg/mL | MIC ([1]; S. aureus HAV#051, mecA, norA, spcl, ermA, aad1, aac6′-aph2″): 2 µg/mL | MIC ([1]; S. aureus HAV#052, mecA, norA, fosB, blaZ): 1 µg/mL | MIC ([1]; S. aureus HAV#053 mecA, norA, fosB): 1 µg/mL | MIC ([1]; S. aureus HAV#054, mecA, norA, spcl, aad1, fosB, ermA, aac6′-aph2″, blaZ): 128 µg/mL | MIC ([1]; S. aureus HAV#203, Clinical (VISA)): >64 µg/mL | MIC ([1]; S. aureus HAV#216, Clinical, cfr): 8 µg/mL | MIC ([1]; S. aureus HAV#217, cfr): 4 µg/mL | MIC ([1]; S. epidermidis HAV# 275 Clinical, cfr): >64 µg/mL | MIC ([1]; S. epidermidis HAV# 276, cfr): >64 µg/mL | MIC ([1]; S. haemolyticus HAV#252, Line R & Methicillin R): >128 µg/mL | MIC [2]: 2 µg/mL | MIC [3]: 1 µg/mL | MIC [4]: 1 µg/mL | MIC [5]: >256 µg/mL | MIC [6]: 1 µg/mL | MIC [7]: 8 µg/mL | MIC [8]: >64 µg/mL | MIC [9]: 1 µg/mL | MIC [10]: 2 µg/mL | MIC [11]: 8 µg/mL | MIC [12]: 16 µg/mL | MIC [13]: 1 µg/mL | MIC [14]: 0.25 µg/mL | MIC [15]: 32 µg/mL | MIC [16]: >64 µg/mL | MIC [17]: 16 µg/mL | MIC [18]: 4 µg/mL | MIC [19]: 1 µg/mL
